Data set [1] relates to MDA-MB-231 cells. Put plainly: Colony formation in soft agar, MDA-MB-231. Format: cell-based, human. As to the method: (§1) Figure 4 HB-19 inhibits colony formation in soft agar by tumor cell lines. (A) MDA-MB-231 cells in culture medium were seeded in triplicate in the absence (histogram C) or presence of 0.1, 0.5 and 1 of µM HB-19, or 0.1 µM of the anti-nucleolin mAb MS-3 or control IgG, or 10 µM bisphosphonate (BisP). (B) Various tumor cell lines (as indicated) in culture medium were seeded in triplicate in the absence (histogram Control) or presence of 5 µM HB-19. After 10–21 days, colonies with diameters greater than 50 µm were scored as positive. Statistical significance: *0.01<p<[…], **p<0.01, ***p<0.001.
(§2) Carcinoma cells (2×10^4) were mixed in 0.35% top agar, diluted in complete medium (DMEM containing 10% FBS) in the absence or presence of HB-19, and plated onto 0.8% bottom agar into 12-well plates. Cells were treated twice a week during 10 to 21 days. Colonies with diameters greater than 50 µm were scored as positive using a phase contrast microscope equipped with a measuring grid at magnification 100× [45]. The number of colonies was determined by analyzing 5 fields/well from 3 wells and the test was repeated at least twice.

The test system of data set [2] is PC3 cells. Put plainly: Colony formation in soft agar, PC3. The conditions noted are these: 5 µM HB-19, PC3. Format: cell-based, human. Here is the method: as §1, §2
In data set [3] the test system is B16 cells. Nature of the data set: Colony formation in soft agar, B16. Type of data set: cell-based, mouse. The note with it: 5 µM HB-19, B16. Here is the method: as §1, §2
Data set [4] has as its system HUVECs. Put plainly: Proliferation of VEGF stimulated HUVECs. Format: cell-based, human. The note with it: 0.25 nM VEGF165; 1 µM HB-19 or 0.1 µM mAb MS-3; 72 h; mean of triplicate. Here is the method: Figure 6 Inhibition of in vitro and in vivo angiogenesis by HB-19. (A) HB-19 inhibits proliferation of HUVECs. Twenty-four hours after seeding HUVECs in 2% FBS, cells were stimulated by 0.25 nM VEGF165, in the absence or presence of 1 µM HB-19 or 0.1 µM anti-nucleolin mAb MS-3 as indicated. After 72 h, cell number was determined by crystal violet staining. The data are reported as the mean of triplicate samples. (B) HB-19 inhibits migration of HUVECs. Cell migration was studied using a modified Boyden chamber. Cells were incubated (4 h at 37°C) with VEGF165, HB-19, or anti-nucleolin mAb MS-3 as above. Cells that migrated through the pore to the lower filter surface were counted and are shown as number per microscopic field at ×100 magnification. The data are the mean of three independent high-power fields/well performed in duplicate in two independent experiments. […] Aortic endothelial (ABAE) cells in the absence or presence of 3 nM PTN, 0.5 nM VEGF165, and 3 nM FGF-2 were seeded on a three-dimensional collagen gel in complete medium. […] Tubular network structures were quantified using phase contrast microscopy (×100). […] Quantification of endothelial cell invasion into the Matrigel was determined and is expressed as a mean of five fields per section from 3 Matrigel-plug sections per mouse. The results are expressed as the mean of five mice per group. […]

Data set [5] in a line: Blood cell count in tumor bearing mice. Format: in vivo, mouse. The conditions noted are these: 3 times/week, 8 weeks. As to the method: Figure 8 HB-19 inhibits tumor growth in the nude mice. (A) HB-19 inhibits the growth of MDA-MB-231 tumor-cell xenografts. Cells (2×10^6) were injected subcutaneously into the right flank of female nude mice. Two weeks later, mice with a palpable tumor of approximately 40 mm^3 in volume were randomly separated into three groups (n = 5) and were given peritumoral injections 3 times/week of 0.1 ml PBS alone (Control), HB-19 (5 mg/kg), or Tamoxifen (Tmx) 10 mg/kg) for 6 weeks. (B) HB-19 inhibits the growth of MDA-MB-435 tumor-cell xenografts. Cells (1×10^6) were injected in the mammary fat pad of female nude mice. Two weeks later, mice with a palpable tumor were randomly separated into three groups (n = 10) and were given intraperitoneal injections 3 times/week of 0.1 ml PBS alone (Control), HB-19 (5 mg/kg), or 5-fluouracil (5-FU, 40 mg/kg) for 8 weeks. At the end of each experiment (in A and B), mice were sacrificed and the tumors were excised and weighed. The results are presented as the mean weight ±standard deviation (±S.D.) obtained from the number of mice in each group. (C, D) Inhibition of tumor development in mice treated by intraperitoneal (i.p.) and subcutaneous (s.c.) administration of HB-19. MDA-MB-231 tumor bearing mice in three groups (n = 10) were treated with HB-19 (10 mg/kg) by i.p. or s.c. injections, 3 times/week for 28 days. […] Statistical significance: *p<0.05, **p<0.01, ***p<0.001.
Blood samples were collected by cardiac puncture. Hematocrit level, white blood cells and platelets count were determined individually in whole blood anticoagulated with EDTA (1 mM) at room temperature. Blood cell count was analyzed with an automated flow cytometric blood cell counter (Cell-Dyn 3500, Abbott Laboratories, Rungis, France).

The test system of data set [6] is athymic nude mice. The conditions noted are these: mouse, in vivo.
Protocol: Inhibitory action of HB-19 was tested against established human breast carcinoma xenografts in the athymic nude mice. For this purpose, mice were inoculated subcutaneously with MDA-MB-231 or MDA-MB-435 cells that proliferate into palpable tumors in 2 weeks. Tumor bearing mice were then treated with HB-19 (Figure 8A, B) or control antitumoral reagents such as tamoxifen and 5-fluouracil (5-FU). The mice were administered 3 times per week with various drugs, during which time tumor-volume was measured by a caliper every third or fourth day. At the end of experiment, tumor-bearing mice were sacrificed, blood was collected for analysis, and the liver, lungs and spleen were removed for histological analysis.
4-week old female athymic nude Mice (Janvier, Le Genest St Isle, France) were injected subcutaneously in the right flank (MDA-MB-231) or in the mammary fat pad (MDA-MB-435) in 0.1 ml PBS. When the tumor reached about 40 mm^3, the mice were separated randomly in several groups. Administration of HB-19 in PBS (5 mg/kg body weight) was either by intraperitoneal, subcutaneous or peritumoral injections three times per week. Tumor volume was measured along two major axes with calipers. Tumor volume (mm^3) was calculated as follows: V = 4/3×π×R1 ^2×R2, where R1 is radius 1, R2 is radius 2 and R1<R2.
For data set [7] the following is noted: cited from earlier work. The text has this:
HB-19 treatment is not toxic in vitro and in vivo. The lack of translocation of HB-19 to the nucleus and nucleolus probably accounts for its lack of toxicity in cultured cells and in mice, since nuclear nucleolin is involved in many aspects of gene expression, [2]. […] In s ...

Regarding “pseudo-tripeptide Lysψ(CH2N)-Pro-Arg coupled to a template (H2NLys-Lys-Lys-Gly-Pro-Lys-Glu-Lys-AhxCONH2) [HB-19, pseudopeptide presenting pentavalently the pseudo-tripeptide Lysψ(CH2N)-Pro-Arg coupled to a template]”, in data set [1] (1 µM HB-19, triplicate, colonies >50 µm, 10–21 days), the “reduction of colony-forming capacity” value was 50%. For the same substance, in data set [1] (5 µM HB-19, MDA-MB-231), the colony formation entry was “reduced markedly”. Also, the “reduction of colony-forming capacity” value in data set [1] (HB-19 0.1, 0.5 and 1 µM, anti-nucleolin mAb MS-3 0.1 µM) is recorded as “reduced significantly”. For the same substance, the colony formation result in data set [2] is on record as “reduced markedly”. For the same substance, the colony formation entry in data set [3] is “reduced markedly”. Also, in data set [4], the “inhibition of HUVEC proliferation” value is recorded as “inhibited dramatically both of these events down to levels comparable to that of unstimulated cells”. The Eosinophils in data set [5] (HB-19 5 mg/kg or 5-FU 40 mg/kg i.p., mean ± SD, n = 10, untreated 0.01±0.02) is listed as 0.03±0.04 ×10^3/µl. Moreover, in data set [5] (HB-19 5 mg/kg or 5-FU 40 mg/kg i.p., mean ± SD, n = 10, untreated 0.10±0.06), the Basophils is on record as 0.09±0.04 ×10^3/µl. In addition, the Monocytes in data set [5] (HB-19 5 mg/kg or 5-FU 40 mg/kg i.p., mean ± SD, n = 10, untreated 0.20±0.09) is 0.23±0.07 ×10^3/µl. The Neutrophils in data set [5] (HB-19 5 mg/kg or 5-FU 40 mg/kg i.p., mean ± SD, n = 10, untreated 0.89±0.39, 5-FU p<0.05) is 1.03±0.44 ×10^3/µl. For the same substance, the Lymphocytes in data set [5] (HB-19 5 mg/kg or 5-FU 40 mg/kg i.p., mean ± SD, n = 10, untreated 1.84±0.78, 5-FU p<0.01) is reported as 1.98±1.01 ×10^3/µl. For the same substance, the Leukocytes in data set [5] (HB-19 5 mg/kg or 5-FU 40 mg/kg i.p., mean ± SD, n = 10, untreated 3.05±1.29, 5-FU p<0.05) is on record as 3.36±1.28 ×10^3/µl. Also, the Erythrocytes in data set [5] (HB-19 5 mg/kg or 5-FU 40 mg/kg i.p., mean ± SD, n = 10, untreated 8.73±0.26, 5-FU p<0.0001) was 8.31±1.05 ×10^6/µl. Further, the Platelets in data set [5] (HB-19 5 mg/kg or 5-FU 40 mg/kg i.p., mean ± SD, n = 10, untreated 1041±91) was 1037± 225 ×10^3/µl. Also, the “effect on number of platelets, erythrocytes and leukocytes” value in data set [5] (HB-19 5 mg/kg, intraperitoneal) is “no effect on the number of platelets, erythrocytes, and leukocytes”. Further, in data set [6], the “effect on body weight and blood cell counts” value was “no effect on body weight and on blood cell counts”; the “effect on tissues at autopsy” value is given as “no apparent effect on various tissues compared to control mice”. The “recovery in bone marrow” value in data set [7] (a few minutes following intravenous injection) is recorded as “a significant proportion of the peptide is recovered in the bone marrow”. The tissue uptake entry in data set [7] is listed as “there is a threshold for the tissue uptake of HB-19”. Also, in data set [7] (rats, 24 hours), the persistence in tissue result is reported as “a significant proportion still persists even after 24 hours in its active form”. In data set [7] (rats, systemic administration), the blood clearance result was “rapidly cleared from blood” and the tissue distribution result is on record as “distributed selectively in tissues expressing enhanced levels of surface nucleolin”. Further, in data set [7] (rats), the “form of excreted radioactivity in urine” value is reported as “most of the excreted radioactivity in the urine is in the form of HB-19 metabolites” and the route of elimination result is on record as “eliminated gradually by renal glomerular filtration”.

The record behind these values is paper PMC2424174, “Suppression of Tumor Growth and Angiogenesis by a Specific Antagonist of the Cell-Surface Expressed Nucleolin” (PLoS ONE, 2008).
